Activity calls are given as the source filed them. The rule behind the calls is not given here.

The target in series [1] is T1, 5-hydroxytryptamine receptor 2B (Homo sapiens, UniProt P41595). Briefly: Partial agonist activity at human 5-HT2BR expressed in human Flp-In-T-REx-293 cells assessed as increase in calcium flux incubated for 60 mins followed by incubation for 30 mins in dark by Flou-4 dye based FLIPR assay. Type of series: functional, cell-based.
Series [2] addresses T2, 5-hydroxytryptamine receptor 2C (Homo sapiens) (UniProt P28335).
T2 sequence (whole entry): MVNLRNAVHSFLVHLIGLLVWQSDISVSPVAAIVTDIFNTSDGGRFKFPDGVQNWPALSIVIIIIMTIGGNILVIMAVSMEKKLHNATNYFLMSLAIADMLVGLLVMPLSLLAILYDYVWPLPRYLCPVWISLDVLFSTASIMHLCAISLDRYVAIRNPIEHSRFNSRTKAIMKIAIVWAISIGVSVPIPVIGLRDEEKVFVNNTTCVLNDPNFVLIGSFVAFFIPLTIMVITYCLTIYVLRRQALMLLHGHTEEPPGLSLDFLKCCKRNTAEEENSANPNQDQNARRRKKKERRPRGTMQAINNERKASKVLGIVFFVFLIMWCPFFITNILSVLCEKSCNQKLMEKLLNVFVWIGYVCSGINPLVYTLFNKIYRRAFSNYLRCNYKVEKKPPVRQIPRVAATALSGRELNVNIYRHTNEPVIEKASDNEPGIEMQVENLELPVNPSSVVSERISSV
Briefly: Agonist activity at human 5-HT2CR expressed in human Flp-In-T-REx-293 cells assessed as increase in calcium flux by measuring maximal efficacy incubated for 60 mins followed by incubation for 30 mins in dark by Flou-4 dye based FLIPR assay. The conditions noted are these: filed as agonist, time 90.0 min. Type of series: functional, cell-based.

For series [3], the target named is T1, 5-hydroxytryptamine receptor 2B. Briefly: Partial agonist activity at human 5-HT2BR expressed in human Flp-In-T-REx-293 cells assessed as increase in calcium flux by measuring maximal efficacy incubated for 60 mins followed by incubation for 30 mins in dark by Flou-4 dye based FLIPR assay relative to control. Type of series: functional, cell-based. The conditions noted are these: time 90.0 min.

Series [4] concerns the target 5-hydroxytryptamine receptor 2A (Homo sapiens) (UniProt P28223). Briefly: Partial agonist activity at human 5-HT2AR expressed in human Flp-In-T-REx-293 cells assessed as increase in calcium flux upto 10 uM incubated for 60 mins followed by incubation for 30 mins in dark by Flou-4 dye based FLIPR assay. The settings on record: time 90.0 min. Type of series: functional, cell-based.

The target of series [5] is T3, 5-hydroxytryptamine receptor 2C (Homo sapiens, UniProt P28335).
T3 sequence (P28335 whole entry): T2 sequence (whole entry)
Briefly: Agonist activity at human 5-HT2CR expressed in human Flp-In-T-REx-293 cells assessed as increase in calcium flux incubated for 60 mins followed by incubation for 30 mins in dark by Flou-4 dye based FLIPR assay. Type of series: functional, cell-based.

The target in series [6] is T2, 5-hydroxytryptamine receptor 2C (Homo sapiens). Briefly: Partial agonist activity at human 5-HT2CR expressed in human Flp-In-T-REx-293 cells assessed as increase in calcium flux by measuring maximal efficacy incubated for 60 mins followed by incubation for 30 mins in dark by Flou-4 dye based FLIPR assay relative to control. Type of series: functional, cell-based. The conditions noted are these: time 90.0 min.

The target of series [7] is T3, 5-hydroxytryptamine receptor 2C. The series can be described thus: Partial agonist activity at human 5-HT2CR expressed in human Flp-In-T-REx-293 cells assessed as increase in calcium flux incubated for 60 mins followed by incubation for 30 mins in dark by Flou-4 dye based FLIPR assay. Type of series: functional, cell-based.
In series [8] the target is T2, 5-hydroxytryptamine receptor 2C (Homo sapiens). The series can be described thus: Partial agonist activity at human 5-HT2CR expressed in human Flp-In-T-REx-293 cells assessed as increase in calcium flux upto 10 uM incubated for 60 mins followed by incubation for 30 mins in dark by Flou-4 dye based FLIPR assay. The conditions noted are these: time 90.0 min. Type of series: functional, cell-based.

In series [9] the target is T4, hERG (KCNH2) (Homo sapiens, UniProt Q12809). Briefly: Inhibition of hERG at 10 uM relative to control. Type of series: toxicity.
T4 sequence (Q12809 whole entry): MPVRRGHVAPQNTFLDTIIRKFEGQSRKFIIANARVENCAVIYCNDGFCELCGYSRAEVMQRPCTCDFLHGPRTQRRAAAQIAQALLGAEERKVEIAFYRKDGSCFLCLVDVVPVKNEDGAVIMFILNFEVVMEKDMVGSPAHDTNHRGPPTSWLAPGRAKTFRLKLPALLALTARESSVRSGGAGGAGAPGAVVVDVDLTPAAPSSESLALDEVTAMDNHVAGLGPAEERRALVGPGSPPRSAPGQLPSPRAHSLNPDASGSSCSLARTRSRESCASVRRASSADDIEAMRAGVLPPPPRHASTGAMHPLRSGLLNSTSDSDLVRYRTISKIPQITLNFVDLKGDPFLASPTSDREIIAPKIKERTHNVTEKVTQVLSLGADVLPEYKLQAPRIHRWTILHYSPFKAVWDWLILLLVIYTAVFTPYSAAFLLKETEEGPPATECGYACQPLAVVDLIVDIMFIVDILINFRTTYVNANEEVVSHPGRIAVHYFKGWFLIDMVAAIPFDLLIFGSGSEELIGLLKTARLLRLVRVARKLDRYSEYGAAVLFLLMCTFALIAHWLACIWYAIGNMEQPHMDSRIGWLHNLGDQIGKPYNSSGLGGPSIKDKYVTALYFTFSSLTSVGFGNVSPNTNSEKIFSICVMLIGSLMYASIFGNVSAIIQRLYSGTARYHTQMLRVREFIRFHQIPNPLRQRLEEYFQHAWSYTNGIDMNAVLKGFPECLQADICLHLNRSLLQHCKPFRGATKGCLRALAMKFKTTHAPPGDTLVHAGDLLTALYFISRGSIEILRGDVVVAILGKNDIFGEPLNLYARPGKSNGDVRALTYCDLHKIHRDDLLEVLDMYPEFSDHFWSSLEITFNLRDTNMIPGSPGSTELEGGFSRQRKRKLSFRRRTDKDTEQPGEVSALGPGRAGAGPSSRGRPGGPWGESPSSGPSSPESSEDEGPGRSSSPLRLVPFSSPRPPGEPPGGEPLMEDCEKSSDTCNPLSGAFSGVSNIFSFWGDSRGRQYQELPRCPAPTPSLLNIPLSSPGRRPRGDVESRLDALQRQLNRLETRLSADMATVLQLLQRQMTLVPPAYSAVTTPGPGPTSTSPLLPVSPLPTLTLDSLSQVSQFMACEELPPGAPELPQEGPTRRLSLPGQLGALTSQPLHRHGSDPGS
Series [10] addresses T1, 5-hydroxytryptamine receptor 2B. Briefly: Partial agonist activity at human 5-HT2BR expressed in human Flp-In-T-REx-293 cells assessed as increase in calcium flux upto 10 uM incubated for 60 mins followed by incubation for 30 mins in dark by Flou-4 dye based FLIPR assay. Type of series: functional, cell-based. The settings on record: time 90.0 min.
The target in series [11] is T2, 5-hydroxytryptamine receptor 2C (Homo sapiens). Briefly: Partial agonist activity at Rluc-tagged 5-HT2CR (unknown origin) transfected in HEK293T cells assessed as beta-arrestin-2 recruitment incubated for 10 mins by coelenterazine 400a based BRET assay. Type of series: functional, cell-based.
Series [12] addresses T4, hERG (KCNH2). The series can be described thus: Inhibition of hERG expressed in CHO cells at 10 uM by automated patch clamp method relative to control. Type of series: toxicity, cell-based. The conditions noted are these: CHO cells that express hERG.

Sequence of 5-hydroxytryptamine receptor 2A (Homo sapiens) (P28223 whole entry): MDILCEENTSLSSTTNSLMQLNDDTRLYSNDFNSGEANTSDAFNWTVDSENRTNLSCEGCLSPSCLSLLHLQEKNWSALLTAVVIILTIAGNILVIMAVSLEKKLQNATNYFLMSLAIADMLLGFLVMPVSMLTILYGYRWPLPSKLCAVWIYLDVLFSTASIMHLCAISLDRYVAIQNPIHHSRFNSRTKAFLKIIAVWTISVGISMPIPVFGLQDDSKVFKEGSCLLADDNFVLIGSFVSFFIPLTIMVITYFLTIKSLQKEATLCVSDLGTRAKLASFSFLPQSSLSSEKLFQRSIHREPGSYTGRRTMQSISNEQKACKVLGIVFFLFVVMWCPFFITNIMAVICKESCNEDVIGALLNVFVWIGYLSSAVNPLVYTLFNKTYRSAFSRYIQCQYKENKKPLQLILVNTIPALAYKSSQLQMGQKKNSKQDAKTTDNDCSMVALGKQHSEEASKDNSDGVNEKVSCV
T1 sequence (P41595 whole entry): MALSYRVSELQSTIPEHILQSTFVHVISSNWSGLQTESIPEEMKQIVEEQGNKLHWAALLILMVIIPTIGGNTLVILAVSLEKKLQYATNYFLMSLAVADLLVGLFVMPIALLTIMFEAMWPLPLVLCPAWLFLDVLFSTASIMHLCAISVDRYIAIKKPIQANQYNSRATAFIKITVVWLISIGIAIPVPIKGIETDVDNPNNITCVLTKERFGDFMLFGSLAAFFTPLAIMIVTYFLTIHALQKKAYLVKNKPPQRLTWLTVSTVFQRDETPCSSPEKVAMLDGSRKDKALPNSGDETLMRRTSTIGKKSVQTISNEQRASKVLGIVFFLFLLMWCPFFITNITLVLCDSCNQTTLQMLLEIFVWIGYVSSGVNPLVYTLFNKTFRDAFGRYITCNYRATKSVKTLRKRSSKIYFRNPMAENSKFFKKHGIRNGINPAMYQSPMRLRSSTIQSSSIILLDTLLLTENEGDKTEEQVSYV

Turning to `Clc1cccc2c1C=CC1(CCNCC1)O2`, the EC50 in [1] worked out at 68.4 nM; in series [5], 31 nM. Also, the Emax in series [2] turned out to be 81.9%; in series [3], 34.1%. The outcome in series [4] was inactive.
Consider `Clc1cccc2c1OC1(C=C2)CCNCC1`, for which the results for the EC50 in series [1] and in [7] (read-out: EC50) were 470 nM and 150 nM, respectively. Besides, the Emax in series [3] stood at 30.9%; in [6] (filed as partial agonist) it was 75.7%. Moreover, the outcome in [4] was inactive.
Regarding `CC1CNCCC12C=Cc1ccc(Cl)cc1O2` (stereo in doubt; 29b) [listing 1 of 2 here], the EC50 in series [7] (read-out: EC50) worked out at 2650 nM.
On to `C[C@H]1CC2(C=Cc3ccc(Cl)cc3O2)CCN1` (stereo in doubt; 31a), for which the outcome in series [8] was inactive.
On to `Clc1ccc2c(c1)OC1(C=C2)CNC1`, for which the maximal effect (Emax) in series [6] (filed as partial agonist) came out at 58.5%. Besides, the EC50 in series [7] (read-out: EC50) amounted to 2490 nM.
Turning to `OC1CC2(CCNCC2)Oc2ccccc21` (stereo not given), the result in series [8] was inactive.
Turning to `C[C@@H]1CC2(C=Cc3ccc(Cl)cc3O2)CCN1` (stereo not given in full), the result in [8] was inactive. In addition, in series [6] (filed as partial agonist), the maximum response (Emax) turned out to be 82.5%. In addition, the EC50 in series [7] (read-out: EC50) came out at 950 nM.
Regarding `COc1ccc2c3c1-c1ccccc1CC3NCC2` (stereo not given), on hERG (KCNH2) [9], the inhibition at 10 µM was determined as 92.7%. In addition, the outcome in [4] and in series [10] was inactive. The EC50 in series [7] (read-out: pEC50 (converted)) is 100 nM.
As to `Clc1ccc2c(c1Cl)OC1(C=C2)CCNCC1`, in [8], the result was inactive.
For the molecule `COc1cccc2c1C=CC1(CCNCC1)O2`, the outcome in series [8] was inactive.
In the case of `Clc1ccc2c(c1)C=CC1(CCNCC1)O2`, the Emax in [6] was found to be 36.3%. Besides, the EC50 was 215 nM in series [7] (read-out: EC50) and 2000 nM in series [7] (read-out: pEC50 (converted)).
With `Cc1ccc2c(c1)C=CC1(CCNCC1)O2`, the outcome in series [8] was inactive.
The same measure, in the same setting: to `Clc1ccc2c(c1)OC1(C=C2)CCCNC1` (stereo not given) belongs “inactive”.
For the molecule `Clc1ccc2c(c1)OC1(C=C2)CCNC1` (stereo not given), in [6] (filed as partial agonist), the maximum response (Emax) came out at 44.7%. Besides, in series [7] (read-out: EC50), the EC50 stood at 330 nM.
Regarding `Brc1ccc2c(c1)OC1(C=C2)CCNCC1`, the Emax in series [6] (filed as partial agonist) came out at 72.6%. For the same molecule, in series [7] (read-out: EC50), the EC50 came to 488 nM.
Turning to `Cc1cccc2c1C=CC1(CCNCC1)O2`, in [6] (filed as partial agonist), the Emax worked out at 55.2%. Besides, in series [7] (read-out: EC50), the EC50 worked out at 170 nM.
On to `Fc1ccc2c(c1)OC1(C=C2)CCNCC1`, for which the Emax in series [2] was 91.4%. The EC50 in series [5] was 158 nM.
For `Clc1ccc2c(c1)OC1(C=C2)CCCNCC1` (stereo not given), the maximum response (Emax) in series [6] amounted to 26.2%. Further, the EC50 in series [7] (read-out: EC50) was found to be 3110 nM.
Take `Clc1ccc2c(c1)OC1(C=C2)CCNCC1`: the outcome in series [11] and in series [4] was inactive. The molecule further showed an inhibition at 10 µM at hERG (KCNH2) [12] of 43.9%. For the same molecule, in [6] (filed as partial agonist), the Emax is 71.1%. Moreover, the EC50 in series [7] (read-out: EC50) turned out to be 121 nM.
Take `Fc1ccc2c(c1)C=CC1(CCNCC1)O2`: in [6] (filed as partial agonist), the Emax was 49.5%. Further, the EC50 in [7] (read-out: EC50) was determined as 3060 nM.
Consider `CC1CNCCC12C=Cc1ccc(Cl)cc1O2` (stereo in doubt; 29a) [listing 1 of 2 here], for which, in series [7] (read-out: EC50), the EC50 was determined as 476 nM.
Regarding `c1ccc2c(c1)CCC1(CCNCC1)O2`, the outcome in series [8] was inactive.
For the molecule `O=C1CC2(CCNCC2)Oc2ccccc21`, in [8], the outcome was inactive.
`CC1CNCCC12C=Cc1ccc(Cl)cc1O2` (stereo in doubt; 29b) [listing 2 of 2 here]: in series [6] (filed as partial agonist), the Emax was 73.7%.
Turning to `COc1ccc2c(c1)OC1(C=C2)CCNCC1`, in [6] (filed as partial agonist), the Emax was 50.4%. In series [7] (read-out: EC50), the EC50 came to 3740 nM.
Consider `COc1ccc2c(c1)C=CC1(CCNCC1)O2`, for which, in series [8], the result was inactive.
Turning to `Fc1cccc2c1OC1(C=C2)CCNCC1`, the maximum response (Emax) in series [6] (filed as partial agonist) is 64.4%. Besides, the EC50 in [7] (read-out: EC50) is 929 nM.
For `Clc1ccc2c(c1)OC1(C=C2)CC2CCC(C1)N2` (stereo not given), the result in series [8] was inactive.
Turning to `C1=CC2(CCNCC2)Oc2ccccc21`, the result in series [11] and in [4] was inactive. In addition, the EC50 amounted to 897 nM in series [1] and 147 nM in series [7] (read-out: EC50). Also, the values for the Emax in series [3] and in series [6] (filed as partial agonist) were 19.4% and 85.9%, respectively.
Regarding `Clc1cc(Cl)c2c(c1)OC1(C=C2)CCNCC1`, in [8], the result was inactive.
`Cc1ccc2c(c1)OC1(C=C2)CCNCC1`: in [8], the result was inactive.
With `C[C@H]1CC2(C=Cc3ccc(Cl)cc3O2)CCN1` (stereo in doubt; 31b), the result in series [8] was inactive.
For the molecule `Cc1cccc2c1OC1(C=C2)CCNCC1`, the Emax in series [6] stood at 22.4%. Besides, in [7] (read-out: EC50), the EC50 was found to be 2060 nM.
As to `NC1CCC2(C=Cc3ccc(Cl)cc3O2)CC1` (stereo not given), in [6] (filed as partial agonist), the maximum response (Emax) was found to be 69%. Further, in series [7] (read-out: EC50), the EC50 amounted to 3380 nM.
`CC1CNCCC12C=Cc1ccc(Cl)cc1O2` (stereo in doubt; 29a) [listing 2 of 2 here]: the Emax in series [6] (filed as partial agonist) came to 80%.

These data come from ChEMBL document CHEMBL5357013, “Identification of Spiro[chromene-2,4'-piperidine]s as Potent, Selective, and Gq-Biased 5-HT2C Receptor Partial Agonists” (ACS Med Chem Lett, 2024).
